Each structure is given as a SMILES string.

This is an account of results in ChEMBL document CHEMBL5291721, “A preclinical secondary pharmacology resource illuminates target-adverse drug reaction associations of marketed drugs” (Nat Commun, 2023).

One assay addresses Adenosine receptor A2a (Homo sapiens, UniProt P29274).
For assay [1], the target named is T1, Alpha-2C adrenergic receptor (Homo sapiens, UniProt P18825).
T1 sequence (P18825 whole entry): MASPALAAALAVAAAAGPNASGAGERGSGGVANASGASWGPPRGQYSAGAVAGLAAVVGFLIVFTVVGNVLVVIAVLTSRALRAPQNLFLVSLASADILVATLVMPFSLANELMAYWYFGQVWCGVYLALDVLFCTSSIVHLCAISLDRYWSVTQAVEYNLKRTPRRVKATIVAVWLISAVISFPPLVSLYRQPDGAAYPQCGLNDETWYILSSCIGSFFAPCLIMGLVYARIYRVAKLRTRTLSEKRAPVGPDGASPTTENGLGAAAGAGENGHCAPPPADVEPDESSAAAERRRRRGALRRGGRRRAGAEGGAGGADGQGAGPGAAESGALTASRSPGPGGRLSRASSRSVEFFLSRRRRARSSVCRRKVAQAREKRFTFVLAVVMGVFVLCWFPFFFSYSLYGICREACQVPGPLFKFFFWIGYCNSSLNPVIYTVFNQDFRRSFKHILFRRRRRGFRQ
It counts as functional.

For a further assay, the target named is Vasopressin V2 receptor (Homo sapiens, UniProt P30518).
The target of assay [2] is T2, Cholecystokinin receptor type A (Homo sapiens, UniProt P32238).
T2 sequence (P32238 whole entry): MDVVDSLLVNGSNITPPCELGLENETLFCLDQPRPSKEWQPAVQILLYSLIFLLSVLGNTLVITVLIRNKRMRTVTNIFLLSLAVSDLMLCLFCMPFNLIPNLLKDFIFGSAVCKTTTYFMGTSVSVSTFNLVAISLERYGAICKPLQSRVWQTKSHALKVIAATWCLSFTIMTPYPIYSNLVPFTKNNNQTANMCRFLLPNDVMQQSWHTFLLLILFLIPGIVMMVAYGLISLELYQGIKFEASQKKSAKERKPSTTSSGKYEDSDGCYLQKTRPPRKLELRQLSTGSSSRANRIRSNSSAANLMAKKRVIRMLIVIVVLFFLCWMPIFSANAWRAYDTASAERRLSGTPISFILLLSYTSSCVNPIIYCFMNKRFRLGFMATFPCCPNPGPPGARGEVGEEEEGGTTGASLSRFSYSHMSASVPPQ

The target of assay [3] is Neuronal acetylcholine receptor subunit alpha-4 (Homo sapiens, UniProt P43681).
A further assay has as its target Cannabinoid receptor 1 (Homo sapiens, UniProt P21554). The assay is classed as functional, cell-based.
The next assay has as its target T3, Endothelin-1 receptor (Homo sapiens, UniProt P25101).
T3 sequence (P25101 whole entry): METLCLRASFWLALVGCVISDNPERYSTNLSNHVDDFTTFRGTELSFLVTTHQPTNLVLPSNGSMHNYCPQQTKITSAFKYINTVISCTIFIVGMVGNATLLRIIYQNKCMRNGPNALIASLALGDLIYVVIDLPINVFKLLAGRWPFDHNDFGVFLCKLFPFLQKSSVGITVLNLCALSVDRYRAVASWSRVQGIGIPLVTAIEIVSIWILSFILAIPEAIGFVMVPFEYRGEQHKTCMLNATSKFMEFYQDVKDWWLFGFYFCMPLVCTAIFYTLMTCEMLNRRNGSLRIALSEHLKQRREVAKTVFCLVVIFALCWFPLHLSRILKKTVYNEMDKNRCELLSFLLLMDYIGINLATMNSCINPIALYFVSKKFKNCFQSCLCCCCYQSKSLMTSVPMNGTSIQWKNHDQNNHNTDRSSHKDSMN

The target in assay [4] is Growth hormone secretagogue receptor type 1 (Homo sapiens, UniProt Q92847).
The next assay addresses T4, Estrogen receptor (Homo sapiens, UniProt P03372).
T4 sequence (P03372 whole entry): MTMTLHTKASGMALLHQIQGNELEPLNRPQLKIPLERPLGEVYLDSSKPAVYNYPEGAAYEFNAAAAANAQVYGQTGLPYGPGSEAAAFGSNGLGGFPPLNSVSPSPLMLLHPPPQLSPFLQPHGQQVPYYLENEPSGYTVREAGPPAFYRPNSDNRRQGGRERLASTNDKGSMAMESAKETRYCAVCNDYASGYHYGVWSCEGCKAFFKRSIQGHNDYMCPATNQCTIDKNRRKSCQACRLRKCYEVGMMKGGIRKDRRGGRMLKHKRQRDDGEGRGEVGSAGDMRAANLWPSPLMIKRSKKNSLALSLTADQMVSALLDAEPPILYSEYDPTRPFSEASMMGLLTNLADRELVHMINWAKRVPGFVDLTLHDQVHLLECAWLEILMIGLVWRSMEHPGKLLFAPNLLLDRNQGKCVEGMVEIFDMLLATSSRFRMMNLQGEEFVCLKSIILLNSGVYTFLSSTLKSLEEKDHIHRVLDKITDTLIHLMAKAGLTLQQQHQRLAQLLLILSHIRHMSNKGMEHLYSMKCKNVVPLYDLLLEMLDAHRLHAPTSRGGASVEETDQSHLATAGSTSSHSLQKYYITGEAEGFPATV
Further: assay procedure not described here.

Chain of Neuronal acetylcholine receptor subunit alpha-4 (P43681 whole entry): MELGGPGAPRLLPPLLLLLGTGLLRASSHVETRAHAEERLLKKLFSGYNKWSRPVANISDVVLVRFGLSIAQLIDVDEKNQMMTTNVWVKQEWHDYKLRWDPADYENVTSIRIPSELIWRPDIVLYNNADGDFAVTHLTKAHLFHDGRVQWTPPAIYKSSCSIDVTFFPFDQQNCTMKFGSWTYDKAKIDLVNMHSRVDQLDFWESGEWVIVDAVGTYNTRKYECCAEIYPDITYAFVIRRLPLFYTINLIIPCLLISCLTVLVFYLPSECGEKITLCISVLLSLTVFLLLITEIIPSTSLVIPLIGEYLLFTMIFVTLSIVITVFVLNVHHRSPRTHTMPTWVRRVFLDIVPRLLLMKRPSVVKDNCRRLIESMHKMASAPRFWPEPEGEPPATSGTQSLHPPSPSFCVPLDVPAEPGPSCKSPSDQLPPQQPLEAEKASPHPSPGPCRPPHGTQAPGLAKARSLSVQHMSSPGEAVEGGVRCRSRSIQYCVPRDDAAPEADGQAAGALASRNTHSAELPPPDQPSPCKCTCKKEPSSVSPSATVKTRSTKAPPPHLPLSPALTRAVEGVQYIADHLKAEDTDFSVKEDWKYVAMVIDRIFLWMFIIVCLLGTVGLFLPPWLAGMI
Chain of Vasopressin V2 receptor (P30518 whole entry): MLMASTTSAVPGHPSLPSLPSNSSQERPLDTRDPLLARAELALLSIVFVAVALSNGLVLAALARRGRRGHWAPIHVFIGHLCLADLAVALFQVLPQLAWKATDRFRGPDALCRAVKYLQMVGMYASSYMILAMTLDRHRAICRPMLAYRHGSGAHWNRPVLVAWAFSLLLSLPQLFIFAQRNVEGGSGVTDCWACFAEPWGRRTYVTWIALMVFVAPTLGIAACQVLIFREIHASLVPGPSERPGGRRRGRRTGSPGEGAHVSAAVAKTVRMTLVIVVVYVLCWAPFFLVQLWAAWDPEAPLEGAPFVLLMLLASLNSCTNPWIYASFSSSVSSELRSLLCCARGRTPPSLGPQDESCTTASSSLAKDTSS
Chain of Growth hormone secretagogue receptor type 1 (Q92847 whole entry): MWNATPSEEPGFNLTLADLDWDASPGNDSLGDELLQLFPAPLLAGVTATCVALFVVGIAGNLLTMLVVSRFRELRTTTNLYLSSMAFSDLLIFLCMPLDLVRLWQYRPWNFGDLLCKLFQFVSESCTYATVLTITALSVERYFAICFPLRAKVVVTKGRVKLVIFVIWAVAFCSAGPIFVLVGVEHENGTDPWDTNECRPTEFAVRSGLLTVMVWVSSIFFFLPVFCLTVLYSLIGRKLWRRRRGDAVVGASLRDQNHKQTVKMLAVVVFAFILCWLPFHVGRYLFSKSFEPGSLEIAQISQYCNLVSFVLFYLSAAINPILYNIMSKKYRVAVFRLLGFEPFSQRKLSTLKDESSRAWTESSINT
Chain of Adenosine receptor A2a (P29274 whole entry): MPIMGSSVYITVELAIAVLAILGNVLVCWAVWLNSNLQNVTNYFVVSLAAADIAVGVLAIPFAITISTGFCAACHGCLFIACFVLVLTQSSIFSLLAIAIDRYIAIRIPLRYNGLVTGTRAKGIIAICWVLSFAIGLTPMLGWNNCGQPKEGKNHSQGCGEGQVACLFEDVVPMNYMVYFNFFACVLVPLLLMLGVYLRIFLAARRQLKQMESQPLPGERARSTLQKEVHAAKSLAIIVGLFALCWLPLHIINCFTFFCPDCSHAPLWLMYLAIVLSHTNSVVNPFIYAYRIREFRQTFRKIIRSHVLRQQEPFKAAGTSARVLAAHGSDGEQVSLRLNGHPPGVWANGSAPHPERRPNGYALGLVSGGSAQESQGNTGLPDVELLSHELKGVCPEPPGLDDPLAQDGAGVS
Chain of Cannabinoid receptor 1 (P21554 whole entry): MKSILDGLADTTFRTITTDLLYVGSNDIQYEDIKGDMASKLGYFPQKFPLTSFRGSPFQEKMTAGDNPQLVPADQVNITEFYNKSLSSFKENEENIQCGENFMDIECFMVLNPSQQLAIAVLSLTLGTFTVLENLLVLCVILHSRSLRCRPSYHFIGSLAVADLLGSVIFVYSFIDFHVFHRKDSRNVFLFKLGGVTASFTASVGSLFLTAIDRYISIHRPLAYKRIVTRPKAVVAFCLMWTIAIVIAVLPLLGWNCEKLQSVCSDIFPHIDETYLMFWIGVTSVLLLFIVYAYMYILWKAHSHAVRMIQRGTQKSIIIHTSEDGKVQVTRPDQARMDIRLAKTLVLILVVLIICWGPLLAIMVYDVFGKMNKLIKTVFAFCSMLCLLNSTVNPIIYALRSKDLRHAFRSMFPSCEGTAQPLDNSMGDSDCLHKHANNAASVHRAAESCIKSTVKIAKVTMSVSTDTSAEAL

In the case of `COC(=O)[C@H](c1ccccc1Cl)N1CCc2sccc2C1` [CLOPIDOGREL], the AC50 (on Adenosine receptor A2a; in assay [1]; on Vasopressin V2 receptor; in assay [2]; in assay [3]; at Cannabinoid receptor 1) was > 30 µM each time. Besides, the AC50 (on Endothelin-1 receptor; in assay [4]) was > 30 µM throughout.

As for `C#Cc1cccc(Nc2ncnc3cc(OCCOC)c(OCCOC)cc23)c1` [ERLOTINIB], the AC50 (usually the concentration giving half of the maximal activity seen) was 18 µM at Adenosine receptor A2a; > 30 µM in [1]; 9.1 µM in assay [2]; > 30 µM in [3]; > 10 µM at Cannabinoid receptor 1; > 30 µM at Endothelin-1 receptor. Moreover, the AC50 (at Estrogen receptor; in [4]) was > 30 µM each time.

For the compound `CCC(=O)O[C@@H](O[P@](=O)(CCCCc1ccccc1)CC(=O)N1C[C@H](C2CCCCC2)C[C@H]1C(=O)O)C(C)C` [FOSINOPRIL], the AC50 (in assay [1]; at Cannabinoid receptor 1; on Estrogen receptor) was > 30 µM throughout.

As for `Nc1nc(O)c2ncn(COC(CO)CO)c2n1` [GANCICLOVIR], the AC50 (at Adenosine receptor A2a; in assay [1]; at Vasopressin V2 receptor; in assay [2]; in assay [3]; on Cannabinoid receptor 1) was > 30 µM in each case. The AC50 (at Endothelin-1 receptor; in assay [4]) was > 30 µM each time.

Take `Cc1cnc(NC(=O)C2=C(O)c3ccccc3S(=O)(=O)N2C)s1` [MELOXICAM]: the AC50 is > 30 µM on Adenosine receptor A2a; > 10 µM in [1]; > 30 µM at Vasopressin V2 receptor; > 30 µM in [2]; > 10 µM in [3]; > 30 µM at Cannabinoid receptor 1. The results for the AC50 (on Endothelin-1 receptor; in [4]) were 13.4 µM and > 30 µM, respectively.

Take `CC[C@@H](CO)NC(=O)[C@@H]1C=C2c3cccc4[nH]cc(c34)C[C@H]2N(C)C1` [METHYLERGONOVINE]: the AC50 is > 30 µM on Adenosine receptor A2a; 1.7 µM in assay [1]; > 30 µM at Vasopressin V2 receptor; > 30 µM in assay [2]; > 30 µM in assay [3]; > 30 µM at Cannabinoid receptor 1. In addition, the AC50 (on Endothelin-1 receptor; in [4]) was > 30 µM in each case.

On to `CN(C)c1cc(CNCC(C)(C)C)c(O)c2c1C[C@H]1C[C@H]3[C@H](N(C)C)C(O)=C(C(N)=O)C(=O)[C@@]3(O)C(O)=C1C2=O` [OMADACYCLINE], for which the AC50 (on Adenosine receptor A2a; in assay [1]; at Vasopressin V2 receptor; in assay [2]; in assay [3]; at Cannabinoid receptor 1) was > 30 µM in each case. In addition, the AC50 (at Endothelin-1 receptor; on Estrogen receptor; in assay [4]) was > 30 µM in each case.

With `COc1ccnc(C[S+]([O-])c2nc3ccc(OC(F)F)cc3[nH]2)c1OC` (stereo unspecified) [PANTOPRAZOLE], the AC50 on Adenosine receptor A2a is > 30 µM; in assay [1], > 10 µM; at Vasopressin V2 receptor, > 30 µM; in assay [2], > 30 µM; in [3] it was > 10 µM; on Cannabinoid receptor 1, > 30 µM. The half-maximal activity concentration (AC50) (at Endothelin-1 receptor; in [4]) was > 30 µM throughout.

For the compound `COc1ccc(Cc2nccc3cc(OC)c(OC)cc23)cc1OC` [PAPAVERINE], the AC50 (at Adenosine receptor A2a; in [1]; at Vasopressin V2 receptor; in assay [2]; in assay [3]; on Cannabinoid receptor 1) was > 30 µM in each case. Also, the AC50 (on Endothelin-1 receptor; in assay [4]) was > 30 µM each time.

With `O=C1NC(=O)C(c2ccccc2)(c2ccccc2)N1` [PHENYTOIN], the AC50 (on Adenosine receptor A2a; in assay [1]; on Vasopressin V2 receptor; in assay [2]; in assay [3]; on Cannabinoid receptor 1) was > 30 µM throughout. Moreover, the AC50 (on Endothelin-1 receptor; in assay [4]) was > 30 µM throughout.

In the case of `CC(C)C[C@H](CN)CC(=O)O` [PREGABALIN], the AC50 (on Adenosine receptor A2a; in assay [1]; on Vasopressin V2 receptor; in [2]; in assay [3]; at Cannabinoid receptor 1) was > 30 µM each time. The concentration at half-maximal activity (AC50) (on Endothelin-1 receptor; in [4]) was > 30 µM each time.

As for `CNC(=O)c1cc(Oc2ccc(NC(=O)Nc3ccc(Cl)c(C(F)(F)F)c3)c(F)c2)ccn1` [REGORAFENIB], the AC50 (at Adenosine receptor A2a; in [1]; in assay [3]; on Estrogen receptor) was > 30 µM in each case.

On to `O=C(Nc1c(Cl)cncc1Cl)c1ccc(OC(F)F)c(OCC2CC2)c1` [ROFLUMILAST], for which the AC50 (on Adenosine receptor A2a; in [1]; at Vasopressin V2 receptor; in assay [2]; in [3]; on Cannabinoid receptor 1) was > 30 µM each time. Besides, the AC50 (on Endothelin-1 receptor; in assay [4]) was > 30 µM in each case.

As for `CCCN(CCC)CCc1cccc2c1CC(=O)N2` [ROPINIROLE], the AC50 (at Adenosine receptor A2a; in assay [1]; at Vasopressin V2 receptor; in assay [2]; in assay [3]; on Cannabinoid receptor 1) was > 30 µM in each case. Also, the AC50 (at Endothelin-1 receptor; in assay [4]) was > 30 µM in each case.

As to `CC(C)N(CCCCOCC(=O)NS(C)(=O)=O)c1cnc(-c2ccccc2)c(-c2ccccc2)n1` [SELEXIPAG], the AC50 was > 30 µM at Adenosine receptor A2a; > 30 µM in [1]; > 30 µM at Vasopressin V2 receptor; > 30 µM in assay [2]; > 30 µM in [3]; 28 µM at Cannabinoid receptor 1. Also, the concentration at half-maximal activity (AC50) (at Endothelin-1 receptor; in [4]) was > 30 µM in each case.

Take `CC(=O)S[C@@H]1CC2=CC(=O)CC[C@]2(C)[C@H]2CC[C@@]3(C)[C@@H](CC[C@@]34CCC(=O)O4)[C@H]12` [SPIRONOLACTONE]: the AC50 (at Adenosine receptor A2a; in assay [1]; at Vasopressin V2 receptor; in assay [2]; in assay [3]; at Cannabinoid receptor 1) was > 30 µM throughout. Further, the AC50 (at Endothelin-1 receptor; in [4]) was > 30 µM in each case.

Regarding `CCCCNc1ccc(C(=O)OCCN(C)C)cc1` [TETRACAINE], the AC50 at Adenosine receptor A2a was > 30 µM; in assay [1], > 10 µM; on Vasopressin V2 receptor, > 30 µM; in assay [2], > 30 µM; in assay [3], > 10 µM; at Cannabinoid receptor 1, > 30 µM. In addition, the AC50 (on Endothelin-1 receptor; in assay [4]) was > 30 µM throughout.

`Cc1cc(CC(=O)O)n(C)c1C(=O)c1ccc(Cl)cc1` [ZOMEPIRAC]: the concentration at half-maximal activity (AC50) is > 30 µM at Adenosine receptor A2a; > 30 µM in assay [1]; > 30 µM on Vasopressin V2 receptor; > 30 µM in assay [2]; > 30 µM in assay [3]; > 10 µM on Cannabinoid receptor 1. The AC50 (at Endothelin-1 receptor; in assay [4]) was > 30 µM in each case.
